In brackets after ≈: the same amount, converted by molar mass. Where two headings read alike, the source gives them in different places.
Experiments:
Assay type in all cases: cell-based
IL-6 = IL-6 level of virus-infected Vero cells (ELISA)
Protocol: (§1) To enable measurement of IL-6, IL-10 and TNF-α levels, the culture medium of the treated cells was collected in sterile micro-tubes and centrifuged at 3,500 rpm for 20 minutes. The supernatants were carefully collected and diluted with aquadest at a 1:5 volume ratio and vortexed until homogenous. The samples were deposited onto a well-plate, added to ELISA reagents (Bioassay Technology Laboratory, Shanghai, China), and incubated at 37°C for 60 minutes. Reagent substrate solution was then added to the well and incubated for ten minutes at 37°C. The samples were measured for antigen concentration using the optical density (OD) plotted into the standard curves of IL-6, IL-10, and TNF-α.

SARS-CoV-2 virus = test: microbe, parasite or virus in culture; conditions: for IC50: Severe acute respiratory syndrome coronavirus 2, Vero
TNF-α = TNF-α level of virus-infected Vero cells (ELISA)
Protocol: as §1

IL-10 = IL-10 level of virus-infected Vero cells (ELISA)
Protocol: as §1

[1] = Cytotoxicity (MTT) assay of single and dual combinatory drugs; conditions: human; for viability at 48 h, 0.2 μg/mL / viability at 48 h, 2 μg/mL / viability at 48 h, 10 μg/mL / viability at 48 h, 100 μg/mL / viability at 48 h, 400 μg/mL: read-out: Cell Viability (%)
Protocol: Each tablet containing drugs was triturated and mixed until homogenous. Approximately 50 mg equivalent mass of drugs were weighed and added to dimethyl sulfoxide in order to solubilize the drugs. The suspension was sonicated in a water bath for 15 minutes before being added to Rosewell Park Memorial Institute (RPMI) media, sonicated again and vortexed to mix it until homogenous. The suspension was then filtered through a polycarbonate membrane with a pore size of 0.45 μm and then a pore size of 0.22 μm under aseptic conditions. The filtrate was mixed with 10% foetal bovine serum and penicillin streptomycin before being vortexed to produce a homogenous mixture to be used as a stock solution. The samples were prepared by diluting the stock solution of each drug with RPMI complete media at an appropriate level of dilution to produce a determined concentration. The dual combinatory drugs mixtures were prepared by mixing appropriate amounts of two drug stock solutions in order to produce a final concentration at the required level. The combinatory drugs were evaluated at both constant and non-constant ratios to evaluate their effects on the cytotoxicity, including; antagonistic, synergistic, or additive. A constant ratio of the mixture was achieved by adding drug solutions at the same ratio, thereby increasing each drug concentration, to produce dose escalation. In contrast, at a non-constant ratio, a fixed determined concentration of drug was added to increased doses of other drug solution in order to produce different levels of drug concentration.
The cytotoxic concentration (CC50) of drugs was performed by means of MTT assay at the Stem Cell Research and Development Center, Universitas Airlangga using human umbilical cord mesenchymal stem cells which had been obtained from human placenta tissue as approved by the Ethical Committee of Universitas Airlangga Hospital (Certificate number 101/KEH/2019 dated January 10, 2019). The cells were prepared as the primary cell culture and used for the cytotoxicity assay because of their sensitivity to chemicals. Cells were seeded into 96-well microplates at a concentration of 1x10^3 cells/well in 100 μL Alpha Minimum Essentials Medium (α-MEM, Gibco, USA) supplemented with 10% foetal bovine serum, 1% penicillin-streptomycin and 1% amphotericin-B. The plates were then incubated in a CO2 incubator at 37°C with 5% CO2 for 24 hours, at which point, the supernatant was replaced with α-MEM containing drugs at each concentration and incubated for a further 48 hours. Approximately 25μL of 3-(4,5-Dimethylthiazol-2-yl)-2,5-diphenyl tetrazolium-bromide (MTT) reagent at a concentration of 5mg/mL was subsequently added to each well and incubated for four hours at 37°C with 5% CO2. Purple formazan crystals were formed and observed under an inverted microscope. Dimethyl sulfoxide was added to each well with the complete solubilisation of formazan crystals subsequently being observed. The greater the number of formazan crystals formed, the lower the toxicity of the samples which were read for optical density of formazan using a multi reader at a measurement wavelength of 595 nm (Promega Glomax, USA). The CC50 value was analyzed by CompuSyn software (the ComboSyn Inc., accessed from www.combosyn.com).
In this study, the cytotoxicity assay was evaluated for single and dual combinatory drugs during a period of 48 hours of drug incubation. This assay was intended to evaluate the toxicity of dual combinatory drugs on normal cells. The combination ratios were calculated taking into consideration the usual therapeutic doses and plasma peak concentrations of the drugs. To determine this cytotoxicity, the drugs were mixed at both constant and non-constant ratios.

[2] = FAVIPIRAVIR-AZITHROMYCIN series
[3] = HYDROXYCHLOROQUINE-FAVIPIRAVIR series

NC(=O)c1nc(F)c[nH]c1=O [FAVI, Favipiravir]
IL-6 (IL-6; 10 μg/mL, 24-h): 14.09 ± 1.53 ng/L
IL-6 (IL-6; 10 μg/mL, 48-h): 37.28 ± 0.37 ng/L
IL-6 (IL-6; 10 μg/mL, 72-h): 60.21 ± 0.49 ng/L
IL-6 (IL-6; 15 μg/mL, 24-h): 22.18 ± 1.09 ng/L
IL-6 (IL-6; 15 μg/mL, 48-h): 39.75 ± 1.67 ng/L
IL-6 (IL-6; 15 μg/mL, 72-h): 68.61 ± 1.04 ng/L
IL-6 (IL-6; to 100 μg/mL, 48h): ↘↘ (to 100 μg/mL; 48h)
Virus Titer (SARS-CoV-2 virus; 10 μg/mL, 48-h): 37.37 viral protein fg/mL
Virus Titer (SARS-CoV-2 virus; 15 μg/mL, 24-h): 38.87 viral protein fg/mL
Drug concentration that produced an undetected virus copy number (SARS-CoV-2 virus; MoI 0.04, at 24, 48, and/or 72 hours' incubation): 37.5 µg/mL
IC50 (SARS-CoV-2 virus; 24h, MoI 0.04): 9.6 µg/mL (≈ 61.1 µM)
IC50 (SARS-CoV-2 virus; 48h, MoI 0.04): 18.6 µg/mL (≈ 118 µM)
IC50 (SARS-CoV-2 virus; 72h, MoI 0.04): < 10 µg/mL
Results (virus detection) (SARS-CoV-2 virus; at the drug concentration of the same line of Table 4, MoI 0.04): 24, 48, 72h virus still detected with decreasing number
TNF-α (TNF-α; 10 μg/mL, 24-h): 3.09 ± 1.23 pg/mL
TNF-α (TNF-α; 10 μg/mL, 48-h): 416.51 ± 1.28 pg/mL
TNF-α (TNF-α; 10 μg/mL, 72-h): 711.37 ± 0.70 pg/mL
TNF-α (TNF-α; 15 μg/mL, 24-h): 98.18 ± 1.55 pg/mL
TNF-α (TNF-α; 15 μg/mL, 48-h): 467.47 ± 3.11 pg/mL
TNF-α (TNF-α; 15 μg/mL, 72-h): 725.48 ± 3.51 pg/mL
TNF-α (TNF-α; 10 ppm, 24h): ↘↘ (10 ppm; 24h)
IL-10 (IL-10; 10 μg/mL, 24-h): 31.38 ± 1.80 pg/mL
IL-10 (IL-10; 10 μg/mL, 48-h): 125.32 ± 1.57 pg/mL
IL-10 (IL-10; 10 μg/mL, 72-h): 465.82 ± 0.57 pg/mL
IL-10 (IL-10; 15 μg/mL, 24-h): 27.97 ± 0.29 pg/mL
IL-10 (IL-10; 15 μg/mL, 48-h): 100.89 ± 1.28 pg/mL
IL-10 (IL-10; 15 μg/mL, 72-h): 411.24 ± 0.24 pg/mL
IL-10 (IL-10; 10, 15 μg/mL, 48, 72h): ↗↗ (10, 15 μg/mL; 48, 72h)
CC50 at 48 h ([1]; CC50): > 400 µg/mL
viability at 48 h, 0.2 μg/mL [1, 2]: 105%
viability at 48 h, 2 μg/mL [1, 2]: 104%
viability at 48 h, 10 μg/mL [1, 2]: 109%
viability at 48 h, 100 μg/mL [1, 2]: 110%
viability at 48 h, 400 μg/mL [1, 2]: 126%
viability at 48 h, 0.2 μg/mL [1, 3]: 92.5%
viability at 48 h, 2 μg/mL [1, 3]: 71.9%
viability at 48 h, 10 μg/mL [1, 3]: 72.4%
viability at 48 h, 100 μg/mL [1, 3]: 66.2%
viability at 48 h, 400 μg/mL [1, 3]: 66.8%

Source: paper PMC8213153 (PLoS ONE, 2021)
